Patent US20050180956A1, “SSAO enzyme substrates for vasorelaxation, and methods of use thereof” (priority 2004, published 2005)
Read-outs that look alike come from different tables or passages of the source.

Assays:
[1] = target: homogenized rat aortic SSAO activity (Rattus norvegicus, UniProt O08590); settings: read-out: Km for homogenized rat aortic SSAO activity; cited from earlier work
[2] = test system: human left internal mammary artery (LIMA); test: Vascular ring physiology, isolated human left internal mammary artery rings; settings: for effect of pretreatment on MA-induced relaxation: L-NAME 200 μmol/L and/or INDO 100 μmol/L; for response in HI K+-precontracted LIMA, % of HI K+ tension (contraction): n=9,3,6; for EC50: Homo sapiens; for % Response, contraction (C), LIMA / % Response, relaxation (R), LIMA: NE-precontracted (1 μM) LIMA, 10 min exposure to 1 mmol/L, percentage change of NE-precontraction tension
humans = settings: cited from earlier work
cGMP level in human LIMA = test: cGMP ELISA assay in LIMA segments; settings: NE-precontracted LIMA, MA 1 mmol/L, 30-40 min, control 0.128 ± 0.034
[3] = target: SSAO of human cerebral microvessels (Homo sapiens, UniProt Q16853); settings: read-out: Km, human cerebral microvessels; cited from earlier work
[4] = target: SSAO of human umbilical artery (Homo sapiens, UniProt Q16853); settings: read-out: Km, human umbilical artery; cited from earlier work
human radial artery (RA) = test: Vascular ring physiology, isolated human radial artery rings
[5] = test system: human left internal mammary artery (LIMA)
[6] = target: T1, SSAO activity in homogenized human RSV (Homo sapiens, UniProt Q16853); test: Radiometric SSAO assay (14C-benzylamine), homogenized RSV; assay type: biochemical; settings: homogenate preincubated 20 min, 37° C.; n=5
T1 sequence (Q16853 1-763): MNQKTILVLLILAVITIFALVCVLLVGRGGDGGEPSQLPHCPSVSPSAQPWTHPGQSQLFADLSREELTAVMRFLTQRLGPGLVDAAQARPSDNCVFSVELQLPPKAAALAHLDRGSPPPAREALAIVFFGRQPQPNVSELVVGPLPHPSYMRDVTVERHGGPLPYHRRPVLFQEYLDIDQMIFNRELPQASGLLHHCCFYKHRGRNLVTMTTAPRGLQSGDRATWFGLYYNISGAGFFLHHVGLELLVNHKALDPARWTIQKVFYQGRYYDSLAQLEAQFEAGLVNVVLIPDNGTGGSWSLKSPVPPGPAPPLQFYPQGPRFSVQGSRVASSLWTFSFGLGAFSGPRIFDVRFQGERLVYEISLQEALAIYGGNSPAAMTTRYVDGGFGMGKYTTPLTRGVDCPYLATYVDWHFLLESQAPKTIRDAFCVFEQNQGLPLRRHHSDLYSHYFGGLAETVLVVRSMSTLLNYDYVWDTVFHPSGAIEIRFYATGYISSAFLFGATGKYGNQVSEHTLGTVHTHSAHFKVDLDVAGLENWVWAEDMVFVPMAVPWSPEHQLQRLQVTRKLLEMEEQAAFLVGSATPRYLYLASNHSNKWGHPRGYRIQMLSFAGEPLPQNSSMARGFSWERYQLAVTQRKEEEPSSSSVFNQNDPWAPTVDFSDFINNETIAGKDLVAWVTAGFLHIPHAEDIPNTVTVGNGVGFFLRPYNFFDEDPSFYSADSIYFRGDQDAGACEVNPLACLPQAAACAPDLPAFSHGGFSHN

[7] = target: T2, SSAO activity in homogenized human LIMA (Homo sapiens, UniProt Q16853); test: Radiometric SSAO assay (14C-benzylamine), homogenized LIMA; assay type: biochemical; settings: homogenate preincubated 20 min, 37° C.; n=25
T2 construct: Blood vessel segments were homogenized in Sorensen's Na^+/K^+-phosphate buffered solution; from tissue; host or cells: human left internal mammary artery (LIMA), supernatant of homogenate
T2 sequence (Q16853 1-763): T1 sequence (Q16853 1-763)

[8] = target: T3, SSAO in human saphenous vein (Homo sapiens, UniProt Q16853); settings: read-out: IC50 of SSAO inhibition in human saphenous vein, literature; cited from earlier work
T3 sequence (Q16853 1-763): T1 sequence (Q16853 1-763)

[9] = target: T4, SSAO activity in homogenized human RA (Homo sapiens, UniProt Q16853); test: Radiometric SSAO assay (14C-benzylamine), homogenized RA; assay type: biochemical; settings: homogenate preincubated 20 min, 37° C.; n=10
T4 construct: Blood vessel segments were homogenized in Sorensen's Na^+/K^+-phosphate buffered solution; from tissue; host or cells: human radial artery (RA), supernatant of homogenate
T4 sequence (Q16853 1-763): T1 sequence (Q16853 1-763)

[10] = read-out: Apparent EC50, contraction (C), LIMA
[11] = read-out: Apparent EC50, relaxation (R), LIMA
[12] = NE-precontracted LIMA, repeated methylamine exposure, n=5

homogenized rat aortic SSAO activity, sequence (O08590 whole entry): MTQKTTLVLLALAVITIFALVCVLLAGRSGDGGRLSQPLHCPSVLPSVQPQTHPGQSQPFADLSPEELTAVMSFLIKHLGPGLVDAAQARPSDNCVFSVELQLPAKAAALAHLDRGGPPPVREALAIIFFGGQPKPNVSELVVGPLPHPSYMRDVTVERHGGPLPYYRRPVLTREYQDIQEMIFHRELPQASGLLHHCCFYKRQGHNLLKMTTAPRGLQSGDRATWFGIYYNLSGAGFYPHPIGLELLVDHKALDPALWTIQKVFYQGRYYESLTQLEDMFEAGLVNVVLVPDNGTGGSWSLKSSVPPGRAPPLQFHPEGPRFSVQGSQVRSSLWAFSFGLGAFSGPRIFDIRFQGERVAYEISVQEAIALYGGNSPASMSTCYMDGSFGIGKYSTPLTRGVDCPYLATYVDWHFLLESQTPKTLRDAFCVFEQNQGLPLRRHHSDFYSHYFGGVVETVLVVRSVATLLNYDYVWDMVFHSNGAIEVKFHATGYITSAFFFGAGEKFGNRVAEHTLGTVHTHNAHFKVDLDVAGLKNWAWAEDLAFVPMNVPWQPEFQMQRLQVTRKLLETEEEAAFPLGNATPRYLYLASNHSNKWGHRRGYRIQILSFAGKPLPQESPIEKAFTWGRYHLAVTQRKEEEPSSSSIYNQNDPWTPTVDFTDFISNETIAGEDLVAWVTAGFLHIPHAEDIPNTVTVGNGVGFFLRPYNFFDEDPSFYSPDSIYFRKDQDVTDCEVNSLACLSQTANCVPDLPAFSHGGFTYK

SMILES: C=CCN [allylamine, reference compound]
- Km [1]: 145 µM

SMILES: COc1ccc2c(c1)c(CC(=O)O)c(C)n2C(=O)c1ccc(Cl)cc1 [INDO, indomethacin]
- effect of pretreatment on MA-induced relaxation ([2]; NE-precontracted LIMA, 20 min): neither INDO alone (100 μmol/L; 20 min) nor L-NAME+INDO pretreatment affected the MA-induced relaxation

SMILES: C=O [Formaldehyde, formaldehyde]
- response in HI K+-precontracted LIMA, % of HI K+ tension (contraction) ([2]; 1 mmol/L, 10 min, mean ± SE): 12.9±2.4%
- EC50 [2, 10]: 315 µM
- EC50 [2, 11]: 315 µM
- % Response, contraction (C), LIMA ([2]; mean ± SE): 3.7 ± 3.7%
- % Response, relaxation (R), LIMA ([2]; mean ± SE): 37.3 ± 18.6%

SMILES: COC(=O)[C@@H](N)CCCNC(=N)N[N+](=O)[O-] [L-NAME, N^ω-nitro-L-arginine methyl ester]
- effect of pretreatment on ACh-induced relaxation ([2]; L-NAME 200 μmol/L, 20 min, subset of LIMA rings with relatively strong ACh relaxation): significantly inhibited the ACh-induced relaxation
- effect of pretreatment on MA-induced relaxation ([2]; NE-precontracted LIMA, 20 min): had no effect on MA-induced relaxation

SMILES: CN [methylamine]
- fatalities after accidental exposure (humans; 35 persons hospitalized 7-8 hours post-exposure to spilled purified liquid methylamine): 6
- persons with light to deep coma after accidental exposure (humans; of 35 people): 10 of 35
- [cGMP], RSV (cGMP level in human RSV): 0.109 ± 0.030 pmol/mg
- [cGMP], LIMA, <50% relaxation subgroup (cGMP level in human LIMA; vessels with <50% relaxation (n=3)): 0.067 ± 0.029 pmol/mg
- [cGMP], LIMA, >50% relaxation subgroup (cGMP level in human LIMA; vessels with >50% relaxation (n=6)): 0.227 ± 0.066 pmol/mg
- response in HI K+-precontracted LIMA, % of HI K+ tension (contraction) ([2]; 1 mmol/L, 10 min, mean ± SE): 1.7±3.9%
- EC50 [2, 11]: 230 ± 30 µM
- ACh relaxation after prior exposure, percentage reduction in HI K+ contraction ([2]; LIMA n=7, ACh 1 μM after methylamine 1 mM 10 min (± SEMI 1 mM 15 min) and three PSS bath changes): 20 ± 11%
- HI K+ contraction after prior exposure, percentage of control norepinephrine contraction ([2]; LIMA n=7, HI K+ 100 mM after methylamine 1 mM 10 min (± SEMI 1 mM 15 min) and three PSS bath changes): 102 ± 23%
- SNP relaxation after prior exposure, percentage reduction in HI K+ contraction ([2]; LIMA n=7, SNP 100 μM after methylamine 1 mM 10 min (± SEMI 1 mM 15 min) and three PSS bath changes): 90 ± 11%
- methylamine relaxation relative to ACh-induced relaxation ([2]; LIMA, on average, regardless of order of addition): > 2 times
- % Response, contraction (C), LIMA ([2]; mean ± SE): 0.6 ± 0.3%
- % Response, relaxation (R), LIMA ([2]; mean ± SE): 55.4 ± 3.9%
- % relaxation, 3rd relaxation ([2]; NE-precontracted LIMA, repeated methylamine exposure, n=1): 82.1%
- % relaxation, 1st relaxation [2, 12]: 72.0±7.5%
- % relaxation, 2nd relaxation [2, 12]: 60.8±12.6%
- % reduction of NE-contraction, methylamine post-NE ([2]; NE-precontracted LIMA, 1 mmol/L, 10 min, n=9, mean ± SE): 61±5%
- % Relaxation, LIMA, <50% relaxation subgroup ([2]; NE-precontracted LIMA, MA 1 mmol/L, 30-40 min, vessels with <50% relaxation (n=3)): 34.1 ± 7.1%
- % Relaxation, LIMA, >50% relaxation subgroup ([2]; NE-precontracted LIMA, MA 1 mmol/L, 30-40 min, vessels with >50% relaxation (n=6)): 87.8 ± 5.0%
- Apparent EC50, contraction (C), LIMA ([2]; cumulative concentrations 1-1000 μM, uncontracted and NE-precontracted vessels pooled, mean ± SE): not observed
- % reduction of NE-contraction, methylamine pre-NE ([2]; unstimulated LIMA exposed to 1 mmol/L, 10 min, before NE, n=5, mean ± SE): 53±7%
- Km [3]: 22 µM
- Km [4]: 832 µM
- EC50 (human radial artery (RA); read-out: Apparent EC50, contraction (C), RA): 65 ± 48 µM
- EC50 (human radial artery (RA); read-out: Apparent EC50, relaxation (R), RA): 280 ± 40 µM
- Km [1]: 247 µM

SMILES: CC(=O)OCC[N+](C)(C)C [ACh, acetylcholine]
- mean relaxation half time (t1/2), NE-precontracted LIMA [5]: 1.07 ± 0.122 min
- ACh-induced relaxation, ACh added after MA (post-MA ACh) ([2]; NE-precontracted LIMA, ACh 1 μmol/L, n=20, mean ± SE): 14±6%
- ACh-induced relaxation, ACh added before MA (pre-MA ACh) ([2]; NE-precontracted LIMA, ACh 1 μmol/L, n=21, mean ± SE): 25±6%

SMILES: OO [H2O2, hydrogen peroxide]
- response in HI K+-precontracted LIMA, % of HI K+ tension (contraction) ([2]; 1 mmol/L, 10 min, mean ± SE): 21.1±7.7%
- EC50 [2, 10]: 175 ± 58 µM
- EC50 [2, 11]: 162 ± 41 µM
- % Response, contraction (C), LIMA ([2]; mean ± SE): 15.8 ± 5.3%
- % Response, relaxation (R), LIMA ([2]; mean ± SE): 55.6 ± 9.0%

SMILES: NNC(N)=O [semicarbazide]
- IC50 [6]: 14.7 µM
- IC50 [7]: 16.7 ± 19.5 µM
- IC50 [8]: 500 µM
- mean % reversal of methylamine-induced relaxation ([2]; NE-precontracted LIMA, within 10 min of addition of 1 mmol/L semicarbazide, n=2): 63.0±15.8%
- effect of pretreatment on methylamine-induced relaxation in LIMA ([2]; semicarbazide pretreatment 1 mmol/L, 15 min, no effect on NE contraction or ACh relaxation): significantly reduced the methylamine-induced relaxation
- IC50 [9]: 21.2 ± 11.2 µM
